Measurements reported in the supplement of paper PMC11208160.

Experiment: recombinant UMI read abundance after kanamycin selection (control-corrected) (log10(CPM+1)); higher = more efficient recombination; extreme values may be limits of the assay; sequences stand for … in AGTGCAGAGAAAATCGGCCAGTTTTCTCTGCCTGCAGTCCGCATGCCGTGGGACCCCTTGGGTTCTAACCTGTTGCCTAGATTTATGCAGCGGACTGCCTTTCTCCCAAAGTGATAAACCGG…AGGTTGGTTTCACT; site = the 11-nt donor
How it was run: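 Pooled Escherichia coli screen of donor and donor-binding-loop pairs for the IS621 bridge recombinase. Each pair sits with a 12-nt UMI on a plasmid carrying a promoterless kanamycin gene. The library was co-electroporated with a target plasmid encoding a fixed target and T7-inducible recombinase, then plated with IPTG (0.07 mM) plus kanamycin, or unselected, each in two replicates. Recombinant UMIs were PCR-amplified across the donor–target junction and sequenced. Counts became CPM, averaged over replicates, scaled by control-derived factors and reported as log10(CPM+1).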
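Note: IS621 bridge recombinase in Escherichia coli cells against a fixed T5 target plasmid.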

First: GTTGTGGCATGGACCGGTTTTCCCGGTAATCCGTATTTGAG (site GTTGTGGCTCT)
Second: GTTGTTTCATGGACCGGTTTTCCCGGTAATCCGTATTTGGT (site GTTGTTACTAC)
The “recombinant UMI read abundance (log10)” value of the first is higher: 1.71 for the first, 0.00963 for the second.

“GTTGTTTCATGGACCGGTTTTCCCGGTAATCCGTATTTGGT (site GTTGTTCCTAC)” and “GTTGTTTCATGGACCGGTTTTCCCGGTAATCCGTATTTGGT (site GTTGTTGCTAC)” are within 0.2 log units of each other in “recombinant UMI read abundance (log10)” value: 0.00733 for the first, 0.0146 for the second.

“GTTGTTTCATGGACCGGTTTTCCCGGTAATCCGTATTTGGT (site GTTGTTTCTAC)” and “GTTTAAACATGGACCGGTTTTCCCGGTAATCCGTATTTGGA (site GTTTAAACTTC)” are within 0.2 log units of each other in “recombinant UMI read abundance (log10)” value: 0.83 for the first, 0.655 for the second.

“GTTTAGGCATGGACCGGTTTTCCCGGTAATCCGTATTTGGC (site GTTTAGGCTGC)” and “GTTTGCGCATGGACCGGTTTTCCCGGTAATCCGTATTTGGC (site GTTTGCGCTGC)” are within 0.2 log units of each other in “recombinant UMI read abundance (log10)” value: 2.08 for the first, 2.03 for the second.

“GTTTGTTCATGGACCGGTTTTCCCGGTAATCCGTATTTGAT (site GTTTGTTCTAT)” and “GTTTTTCCATGGACCGGTTTTCCCGGTAATCCGTATTTGGT (site GTTATTCCTAC)” are within 0.2 log units of each other in “recombinant UMI read abundance (log10)” value: 0.167 for the first, 0.0038 for the second.

“GTTTTTCCATGGACCGGTTTTCCCGGTAATCCGTATTTGGT (site GTTCTTCCTAC)” and “GTTTTTCCATGGACCGGTTTTCCCGGTAATCCGTATTTGGT (site GTTGTTCCTAC)” are within 0.2 log units of each other in “recombinant UMI read abundance (log10)” value: 0.00946 for the first, 0.0239 for the second.

Going from “GTTTTTCCATGGACCGGTTTTCCCGGTAATCCGTATTTGGT (site GTTTTTCCTAC)” to “TAAAAGCCATGGACCGGTTTTCCCGGTAATCCGTATTTGAG (site TAAAAGCCTCT)”, the “recombinant UMI read abundance (log10)” value rises from 0 to 0.525.

Compared with “TAAAATCCATGGACCGGTTTTCCCGGTAATCCGTATTTGTA (site TAAAATCCTTA)”, “TAAAATCCATGGACCGGTTTTCCCGGTAATCCGTATTTGTA (site TAAACTCCTTA)” is higher in “recombinant UMI read abundance (log10)” value: 0 for the first, 1.43 for the second.

Going from “TAAAATCCATGGACCGGTTTTCCCGGTAATCCGTATTTGTA (site TAAAGTCCTTA)” to “TAAAATCCATGGACCGGTTTTCCCGGTAATCCGTATTTGTA (site TAAATTCCTTA)”, the “recombinant UMI read abundance (log10)” value falls from 0.431 to 0.

Compared with “TAAACCCCATGGACCGGTTTTCCCGGTAATCCGTATTTGTA (site TAAACCCCTTA)”, “TAAACTCCATGGACCGGTTTTCCCGGTAATCCGTATTTGTA (site TAAAATCCTTA)” is lower in “recombinant UMI read abundance (log10)” value: 1.33 for the first, 0.534 for the second.

Going from “TAAACTCCATGGACCGGTTTTCCCGGTAATCCGTATTTGTA (site TAAACTCCTTA)” to “TAAACTCCATGGACCGGTTTTCCCGGTAATCCGTATTTGTA (site TAAAGTCCTTA)”, the “recombinant UMI read abundance (log10)” value falls from 1.32 to 0.221.

First: TAAACTCCATGGACCGGTTTTCCCGGTAATCCGTATTTGTA (site TAAATTCCTTA)
Second: TAAAGTCCATGGACCGGTTTTCCCGGTAATCCGTATTTGTA (site AAAAGTCCTTA)
The “recombinant UMI read abundance (log10)” value of the first is lower: 0 for the first, 2.17 for the second.

First: TAAAGTCCATGGACCGGTTTTCCCGGTAATCCGTATTTGTA (site CAAAGTCCTTA)
Second: TAAAGTCCATGGACCGGTTTTCCCGGTAATCCGTATTTGTA (site GAAAGTCCTTA)
The “recombinant UMI read abundance (log10)” value of the first is higher: 0.47 for the first, 0.00467 for the second.

First: TAAAGTCCATGGACCGGTTTTCCCGGTAATCCGTATTTGTA (site TAAAATCCTTA)
Second: TAAAGTCCATGGACCGGTTTTCCCGGTAATCCGTATTTGTA (site TAAACTCCTTA)
The “recombinant UMI read abundance (log10)” value of the first is lower: 0 for the first, 0.531 for the second.

Compared with “TAAAGTCCATGGACCGGTTTTCCCGGTAATCCGTATTTGTA (site TAAAGACCTTA)”, “TAAAGTCCATGGACCGGTTTTCCCGGTAATCCGTATTTGTA (site TAAAGCCCTTA)” is higher in “recombinant UMI read abundance (log10)” value: 0.00959 for the first, 0.452 for the second.

Compared with “TAAAGTCCATGGACCGGTTTTCCCGGTAATCCGTATTTGTA (site TAAAGGCCTTA)”, “TAAAGTCCATGGACCGGTTTTCCCGGTAATCCGTATTTGTA (site TAAAGTACTTA)” is higher in “recombinant UMI read abundance (log10)” value: 0.00572 for the first, 0.459 for the second.

“TAAAGTCCATGGACCGGTTTTCCCGGTAATCCGTATTTGTA (site TAAAGTCCTAA)” and “TAAAGTCCATGGACCGGTTTTCCCGGTAATCCGTATTTGTA (site TAAAGTCCTCA)” are within 0.2 log units of each other in “recombinant UMI read abundance (log10)” value: 0.0143 for the first, 0.00255 for the second.

First: TAAAGTCCATGGACCGGTTTTCCCGGTAATCCGTATTTGTA (site TAAAGTCCTGA)
Second: TAAAGTCCATGGACCGGTTTTCCCGGTAATCCGTATTTGTA (site TAAAGTCCTTA)
The “recombinant UMI read abundance (log10)” value of the first is lower: 0 for the first, 0.722 for the second.

“TAAAGTCCATGGACCGGTTTTCCCGGTAATCCGTATTTGTA (site TAAAGTCCTTC)” and “TAAAGTCCATGGACCGGTTTTCCCGGTAATCCGTATTTGTA (site TAAAGTCCTTG)” are within 0.2 log units of each other in “recombinant UMI read abundance (log10)” value: 0.00609 for the first, 0.00546 for the second.

“TAAAGTCCATGGACCGGTTTTCCCGGTAATCCGTATTTGTA (site TAAAGTCCTTT)” and “TAAAGTCCATGGACCGGTTTTCCCGGTAATCCGTATTTGTA (site TAAAGTGCTTA)” are within 0.2 log units of each other in “recombinant UMI read abundance (log10)” value: 0.0573 for the first, 0.00484 for the second.

First: TAAAGTCCATGGACCGGTTTTCCCGGTAATCCGTATTTGTA (site TAAAGTTCTTA)
Second: TAAAGTCCATGGACCGGTTTTCCCGGTAATCCGTATTTGTA (site TAAATTCCTTA)
The “recombinant UMI read abundance (log10)” value of the first is lower: 0.0051 for the first, 0.812 for the second.

“TAAAGTCCATGGACCGGTTTTCCCGGTAATCCGTATTTGTA (site TAACGTCCTTA)” and “TAAAGTCCATGGACCGGTTTTCCCGGTAATCCGTATTTGTA (site TAAGGTCCTTA)” are within 0.2 log units of each other in “recombinant UMI read abundance (log10)” value: 0.243 for the first, 0.198 for the second.

“TAAAGTCCATGGACCGGTTTTCCCGGTAATCCGTATTTGTA (site TAATGTCCTTA)” and “TAAAGTCCATGGACCGGTTTTCCCGGTAATCCGTATTTGTA (site TACAGTCCTTA)” are within 0.2 log units of each other in “recombinant UMI read abundance (log10)” value: 0.0108 for the first, 0 for the second.

First: TAAAGTCCATGGACCGGTTTTCCCGGTAATCCGTATTTGTA (site TAGAGTCCTTA)
Second: TAAAGTCCATGGACCGGTTTTCCCGGTAATCCGTATTTGTA (site TATAGTCCTTA)
The “recombinant UMI read abundance (log10)” value of the first is higher: 0.358 for the first, 0.0492 for the second.

“TAAAGTCCATGGACCGGTTTTCCCGGTAATCCGTATTTGTA (site TCAAGTCCTTA)” and “TAAAGTCCATGGACCGGTTTTCCCGGTAATCCGTATTTGTA (site TGAAGTCCTTA)” are within 0.2 log units of each other in “recombinant UMI read abundance (log10)” value: 0.0268 for the first, 0.00382 for the second.

Compared with “TAAAGTCCATGGACCGGTTTTCCCGGTAATCCGTATTTGTA (site TTAAGTCCTTA)”, “TAAAGTGCATGGACCGGTTTTCCCGGTAATCCGTATTTGTA (site TAAAGTACTTA)” is higher in “recombinant UMI read abundance (log10)” value: 0.671 for the first, 1.36 for the second.

Going from “TAAAGTGCATGGACCGGTTTTCCCGGTAATCCGTATTTGTA (site TAAAGTCCTTA)” to “TAAAGTGCATGGACCGGTTTTCCCGGTAATCCGTATTTGTA (site TAAAGTGCTTA)”, the “recombinant UMI read abundance (log10)” value rises from 0.72 to 2.22.

Compared with “TAAAGTGCATGGACCGGTTTTCCCGGTAATCCGTATTTGTA (site TAAAGTTCTTA)”, “TAAATGACATGGACCGGTTTTCCCGGTAATCCGTATTTGGA (site TAAATGACTTC)” is higher in “recombinant UMI read abundance (log10)” value: 0 for the first, 1.23 for the second.

“TAAATTCCATGGACCGGTTTTCCCGGTAATCCGTATTTGGG (site TAAATTCCTCC)” and “TAAATTCCATGGACCGGTTTTCCCGGTAATCCGTATTTGTA (site TAAAATCCTTA)” are within 0.2 log units of each other in “recombinant UMI read abundance (log10)” value: 0 for the first, 0.00321 for the second.

Going from “TAAATTCCATGGACCGGTTTTCCCGGTAATCCGTATTTGTA (site TAAACTCCTTA)” to “TAAATTCCATGGACCGGTTTTCCCGGTAATCCGTATTTGTA (site TAAAGTCCTTA)”, the “recombinant UMI read abundance (log10)” value rises from 0.00609 to 0.471.

First: TAAATTCCATGGACCGGTTTTCCCGGTAATCCGTATTTGTA (site TAAATTCCTTA)
Second: TAACAGGCATGGACCGGTTTTCCCGGTAATCCGTATTTGTT (site TAACAGGCTAA)
The “recombinant UMI read abundance (log10)” value of the first is lower: 0.558 for the first, 1.1 for the second.

“TAACCACCATGGACCGGTTTTCCCGGTAATCCGTATTTGAT (site TAACCACCTAT)” and “TAACCCGCATGGACCGGTTTTCCCGGTAATCCGTATTTGTG (site TAACCCGCTCA)” are within 0.2 log units of each other in “recombinant UMI read abundance (log10)” value: 0.0138 for the first, 0.00831 for the second.

First: TAACGTCCATGGACCGGTTTTCCCGGTAATCCGTATTTGTA (site TAAAGTCCTTA)
Second: TAACGTCCATGGACCGGTTTTCCCGGTAATCCGTATTTGTA (site TAACGTCCTTA)
The “recombinant UMI read abundance (log10)” value of the first is lower: 0.571 for the first, 0.935 for the second.

“TAACGTCCATGGACCGGTTTTCCCGGTAATCCGTATTTGTA (site TAAGGTCCTTA)” and “TAACGTCCATGGACCGGTTTTCCCGGTAATCCGTATTTGTA (site TAATGTCCTTA)” are within 0.2 log units of each other in “recombinant UMI read abundance (log10)” value: 0.0133 for the first, 0.00898 for the second.

Going from “TAAGACACATGGACCGGTTTTCCCGGTAATCCGTATTTGTT (site TAAGACACTAA)” to “TAAGAGACATGGACCGGTTTTCCCGGTAATCCGTATTTGCG (site TAAGAGACTCG)”, the “recombinant UMI read abundance (log10)” value rises from 1.94 to 2.41.

First: TAAGAGACATGGACCGGTTTTCCCGGTAATCCGTATTTGCG (site TCAGAGACTCG)
Second: TAAGAGACATGGACCGGTTTTCCCGGTAATCCGTATTTGCG (site TGAGAGACTCG)
The “recombinant UMI read abundance (log10)” value of the first is higher: 0.896 for the first, 0.483 for the second.

Going from “TAAGAGACATGGACCGGTTTTCCCGGTAATCCGTATTTGCG (site TTAGAGACTCG)” to “TAAGATACATGGACCGGTTTTCCCGGTAATCCGTATTTGCT (site TAAGATACTAG)”, the “recombinant UMI read abundance (log10)” value rises from 1.14 to 2.11.

For “TAAGATGCATGGACCGGTTTTCCCGGTAATCCGTATTTGGG (site ATCCTCTCTGG)”, the “recombinant UMI read abundance (log10)” value was 0.
